Laboratory results published in patent US10173968B2, “Bishydrazone-based antifungal agents” (University of Kentucky Research Foundation, priority 2016, dated 2019).
Where two headings read alike, the source gives them in different places.

Assays:
[1] = system: C. albicans ATCC 2876; assay: Antifungal MIC, CLSI M27-A3 microbroth dilution; type: cell-based, Candida albicans; settings: Candida albicans, ATCC2876, C. albicans ATCC 2876, susceptible to FLC, ITC, and VOR, read-out: MIC
Experimental: (§1) In vitro MIC testing was performed according to the CLSI M27-A3 standard microbroth dilution methodology for the susceptibility testing of yeasts with minor modifications.

[2] = system: C. albicans ATCC 1237; assay: Antifungal MIC, CLSI M27-A3 microbroth dilution; type: cell-based, Candida albicans; settings: ITC, and VOR
Experimental: as §1

[3] = system: C. albicans ATCC 1003; assay: Antifungal MIC, CLSI M27-A3 microbroth dilution; type: cell-based, Candida albicans; settings: Candida albicans, ATCC1003, read-out: MIC
Experimental: as §1

[4] = system: C. albicans ATCC 2310; assay: Antifungal MIC, CLSI M27-A3 microbroth dilution; type: cell-based, Candida albicans; settings: Candida albicans, ATCC2310, C. albicans ATCC 2310, susceptible to FLC, ITC, and VOR, read-out: MIC
Experimental: as §1

[5] = system: C. albicans ATCC 64124; assay: Antifungal MIC, CLSI M27-A3 microbroth dilution; type: cell-based, Candida albicans; settings: Candida albicans, ATCC64124, C. albicans ATCC 64124, resistant to FLC, ITC, and VOR, read-out: MIC
Experimental: as §1

[6] = system: C. albicans ATCC 10231; assay: Antifungal MIC, CLSI M27-A3 microbroth dilution; type: cell-based, Candida albicans; settings: Candida albicans, ATCC10231, C. albicans ATCC 10231, resistant to FLC, ITC, and VOR, read-out: MIC
Experimental: as §1

[7] = system: C. albicans ATCC 90819; assay: Antifungal MIC, CLSI M27-A3 microbroth dilution; type: cell-based, Candida albicans; settings: Candida albicans, ATCC90819, C. albicans ATCC 90819, resistant to FLC, ITC, and VOR, read-out: MIC
Experimental: as §1

[8] = system: P. aeruginosa ATCC 27853; assay: Antibacterial MIC, double-dilution method; type: cell-based; settings: Pseudomonas aeruginosa, ATCC27853, strain I, Gram-negative, read-out: MIC
Experimental: (§2) MIC values were determined against a variety of Gram-positive (strains A-D) and Gram-negative (E-J) bacterial and mycobacterial (K) strains using the double-dilution method, as previously published. Preliminary screening was performed using 500 μM of each compound.

[9] = system: MRSA; assay: Antibacterial MIC, double-dilution method; type: cell-based; settings: Staphylococcus aureus
Experimental: as §2

[10] = system: E. cloacae ATCC 13047; assay: Antibacterial MIC, double-dilution method; type: cell-based; settings: Enterobacter cloacae, ATCC13047
Experimental: as §2

[11] = system: K. pneumoniae ATCC 27736; assay: Antibacterial MIC, double-dilution method; type: cell-based; settings: Klebsiella pneumoniae, ATCC27736, strain H, Gram-negative, read-out: MIC
Experimental: as §2

[12] = system: M. smegmatis MC2-155; assay: Antibacterial MIC, double-dilution method; type: cell-based; settings: mycobacterial
Experimental: as §2

[13] = system: L. monocytogenes ATCC 19115; assay: Antibacterial MIC, double-dilution method; type: cell-based; settings: Listeria monocytogenes, ATCC19115
Experimental: as §2

[14] = system: S. enterica ATCC 14028; assay: Antibacterial MIC, double-dilution method; type: cell-based; settings: Salmonella enterica, ATCC14028
Experimental: as §2

[15] = system: B. subtilis 168; assay: Antibacterial MIC, double-dilution method; type: cell-based; settings: Bacillus subtilis, strain A, Gram-positive
Experimental: as §2

[16] = system: VRE; assay: Antibacterial MIC, double-dilution method; type: cell-based; settings: Enterococcus
Experimental: as §2

[17] = system: E. coli MC1061; assay: Antibacterial MIC, double-dilution method; type: cell-based; settings: Escherichia coli, strain G, Gram-negative, read-out: MIC
Experimental: as §2

[18] = system: A. baumannii ATCC 19606; assay: Antibacterial MIC, double-dilution method; type: cell-based; settings: Acinetobacter baumannii, ATCC19606
Experimental: as §2

[19] = system: C. albicans strains (panel of seven); assay: Antifungal MIC, summary over the panel; type: cell-based, Candida albicans; settings: Candida albicans; all, most or majority of the fungal strains; read-out: MIC, span over C. albicans strains
Experimental: In vitro MIC testing was performed according to the CLSI M27-A3 standard microbroth dilution methodology for the susceptibility testing of yeasts with minor modifications. […] MIC values were read visually for all tested compounds, and the endpoint was determined as the minimum concentration of compound that yielded complete inhibition relative to growth control.

[20] = Candida albicans, ATCC1237, C. albicans ATCC 1237, resistant to FLC, converted from μg/mL, read-out: MIC
[21] = Candida albicans, ATCC1237, C. albicans ATCC 1237, resistant to FLC, read-out: MIC
[22] = C. albicans ATCC 1003, converted from μg/mL
[23] = strain C, Gram-positive, range 0.5 to 500 μM, read-out: MIC
[24] = strain F, Gram-negative, converted from μM, read-out: MIC
[25] = strain F, Gram-negative, range 0.5 to 500 μM, read-out: MIC
[26] = Mycolicibacterium smegmatis, MC2155, strain K, converted from μM, read-out: MIC
[27] = Mycolicibacterium smegmatis, MC2155, strain K, range 0.5 to 500 μM, read-out: MIC
[28] = strain B, Gram-positive, range 0.5 to 500 μM, read-out: MIC
[29] = strain J, Gram-negative, range 0.5 to 500 μM, read-out: MIC
[30] = strain D, Gram-positive, range 0.5 to 500 μM, read-out: MIC
[31] = strain E, Gram-negative, range 0.5 to 500 μM, read-out: MIC
[32] = strain B, Gram-positive, converted from μM, read-out: MIC
[33] = strain J, Gram-negative, converted from μM, read-out: MIC
[34] = strain D, Gram-positive, converted from μM, read-out: MIC
[35] = strain E, Gram-negative, converted from μM, read-out: MIC

Row | Structure (SMILES) | MIC ([1]; converted from μg/mL) [µM] | MIC [1] [µg/mL] | MIC [2, 20] [µM] | MIC [2, 21] [µg/mL] | MIC [3, 22] [µM] | MIC [3] [µg/mL] | MIC ([4]; converted from μg/mL) [µM] | MIC [4] [µg/mL] | MIC ([5]; converted from μg/mL) [µM] | MIC [5] [µg/mL] | MIC ([6]; converted from μg/mL) [µM] | MIC [6] [µg/mL] | MIC ([7]; converted from μg/mL) [µM] | MIC [7] [µg/mL] | MIC ([8]; converted from μM) [µg/mL] | MIC ([8]; range 0.5 to 500 μM) [µM] | MIC [9, 23] [µM] | MIC [10, 25] [µM] | MIC ([11]; converted from μM) [µg/mL] | MIC ([11]; range 0.5 to 500 μM) [µM] | further results
1 | C/C(=N\NC(=N)N)c1ccc(-c2ccc(/C(C)=N/NC(=N)N)cc2)cc1.Cl.Cl [Compound 4A, (2E,2′E)-2,2′-([1,1′-Biphenyl]-4,4′-diylbis(ethan-1-yl-1-ylidene))bis(hydrazine-1-carboximidamide) dihydrochloride] | 4.7 | 2 | > 73.9 | 31.3 | 18.4 | 7.8 | 9.2 | 3.9 | 4.7 | 2 | 4.7 to 9.2 | 2 to 3.9 | 9.2 | 3.9 | 0.8 | 2 | > 500 | 125 | 6.6 | 15.6 | MIC ([2]; C. albicans ATCC 1237, resistant to FLC, dihydrochloride): >31.3 µg/mL; MIC [9]: > 212 µg/mL; MIC [10, 24]: 52.9 µg/mL; MIC [12, 26]: > 212 µg/mL; MIC [12, 27]: > 500 µM; MIC [13]: > 212 µg/mL; MIC [13, 28]: > 500 µM; MIC [14]: > 212 µg/mL; MIC [14, 29]: > 500 µM; MIC ([15]; converted from μM): > 212 µg/mL; MIC ([15]; range 0.5 to 500 μM): > 500 µM; MIC [16]: > 212 µg/mL; MIC [16, 30]: > 500 µM; MIC ([17]; converted from μM): 26.5 µg/mL; MIC ([17]; range 0.5 to 500 μM): 62.5 µM; MIC [18]: > 212 µg/mL; MIC [18, 31]: > 500 µM; MIC [19]: 2 to 3.9 µg/mL
2 | C/C(=N\NC(=N)N)c1cccc(/C(C)=N/NC(=N)N)c1.Cl.Cl [Compound 4H, (2E,2′E)-2,2′-(1,3-Phenylenebis(ethan-1-yl-1-ylidene))bis(hydrazine-1-carboximidamide) dihydrochloride] | 22.5 | 7.8 | 90.1 | 31.3 | > 90.1 | > 31.3 | 90.1 | 31.3 | > 90.1 | > 31.3 | > 90.1 | > 31.3 | > 90.1 | > 31.3 | 173 | 500 | > 500 | > 500 | > 173 | > 500 | MIC ([9]; strain C, Gram-positive, converted from μM, read-out: MIC): > 173 µg/mL; MIC [10, 24]: > 173 µg/mL; MIC [12, 26]: 5.4 µg/mL; MIC ([12]; Mycolicibacterium smegmatis, MC2155, strain K, range 0.5 to 500 μM): 15.6 to 31.3 µM; MIC ([12]; strain K, range 0.5 to 500 μM, dihydrochloride): (15.6) μM; MIC [13, 32]: 86.8 µg/mL; MIC [13, 28]: 250 µM; MIC [14, 33]: 21.7 to 86.8 µg/mL; MIC [14, 29]: 62.5 to 250 µM; MIC ([15]; converted from μM): 86.8 µg/mL; MIC ([15]; range 0.5 to 500 μM): 250 µM; MIC [16, 34]: 43.4 µg/mL; MIC [16, 30]: 125 µM; MIC ([17]; converted from μM): > 173 µg/mL; MIC ([17]; range 0.5 to 500 μM): > 500 µM; MIC [18, 35]: > 173 µg/mL; MIC [18, 31]: > 500 µM
3 | C/C(=N\NC(=N)N)c1ccc(/C(C)=N/NC(=N)N)cc1.Cl.Cl [Compound 4G, (2E,2′E)-2,2′-(1,4-Phenylenebis(ethan-1-yl-1-ylidene))bis(hydrazine-1-carboximidamide) dihydrochloride] | > 90.1 | > 31.3 | > 90.1 | > 31.3 | > 90.1 | > 31.3 | > 90.1 | > 31.3 | 90.1 | 31.3 | > 90.1 | > 31.3 | > 90.1 | > 31.3 | 86.8 | 250 | > 500 | > 500 | 173 | 500 | MIC [9]: > 173 µg/mL; MIC [10]: > 173 µg/mL; MIC [12, 26]: > 173 µg/mL; MIC [12, 27]: > 500 µM; MIC [13, 32]: 86.8 µg/mL; MIC [13, 28]: 250 µM; MIC [14, 33]: 86.8 to 173 µg/mL; MIC [14, 29]: 250 to 500 µM; MIC ([15]; converted from μM): 86.8 µg/mL; MIC ([15]; range 0.5 to 500 μM): 250 µM; MIC [16, 34]: 43.4 µg/mL; MIC [16, 30]: 125 µM; MIC ([17]; converted from μM): > 173 µg/mL; MIC ([17]; range 0.5 to 500 μM): > 500 µM; MIC [18, 35]: 173 µg/mL; MIC [18, 31]: 500 µM
